Results reported in patent publication US20260015358A1, “BICYCLIC DERIVATIVES, COMPOSITIONS AND USES THEREOF” (Danatlas Pharmaceuticals Co., Ltd., priority 2023, published 2026).

Key:
[1] = target: T1, WRN [UniPro: Q14191 (WRN_HUMAN), N500-C946] (Homo sapiens (Human), UniProt Q14191); assay: WRN ATPase assay (ADP-Glo); type: biochemical; settings: WRN enzymatic activity assay
[2] = target: T1, WRN [UniPro: Q14191 (WRN_HUMAN), N500-C946]; assay: WRN unwinding assay (FORKF DNA, fluorescence); type: biochemical; settings: Table 14

T1 sequence (Q14191 500-946): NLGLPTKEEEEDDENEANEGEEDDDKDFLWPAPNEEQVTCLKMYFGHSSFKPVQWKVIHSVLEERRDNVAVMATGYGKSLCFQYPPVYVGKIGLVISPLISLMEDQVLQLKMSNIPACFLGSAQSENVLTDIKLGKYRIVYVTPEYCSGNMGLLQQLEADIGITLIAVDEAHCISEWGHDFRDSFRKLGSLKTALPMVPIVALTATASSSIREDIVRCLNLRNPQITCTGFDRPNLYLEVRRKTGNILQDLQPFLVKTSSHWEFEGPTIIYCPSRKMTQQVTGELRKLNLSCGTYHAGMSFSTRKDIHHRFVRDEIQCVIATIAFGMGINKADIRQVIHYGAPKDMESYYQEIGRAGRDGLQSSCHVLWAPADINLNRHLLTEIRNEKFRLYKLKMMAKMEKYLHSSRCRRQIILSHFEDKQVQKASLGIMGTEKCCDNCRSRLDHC

| Structure (SMILES) | IC50 [1] [µM] | IC50 [2] [µM] |
| --- | --- | --- |
| CCc1c(N2CCN(C(=O)CNC(=O)c3cccc(NC)c3)CC2)c(=O)n2nc(C3=CCOCC3)nc2n1CC(=O)Nc1ccc(C(F)(F)F)cc1Cl [Example 277, N-(2-(4-(4-(2-((2-Chloro-4-(trifluoromethyl)phenyl)amino)-2-oxoethyl)-2-(3,6-dihydro-2H-pyran-4-yl)-5-ethyl-7-oxo-4,7-dihydro-[1,2,4]triazolo[1,5-a]pyrimidin-6-yl)piperazin-1-yl)-2-oxoethyl)-3-(methylamino)benzamide] | < 0.1 | < 0.1 |
| CCc1c(N2CCN(C(=O)CNC(=O)c3cccc(NC(C)=O)c3)CC2)c(=O)n2nc(C3=CCOCC3)nc2n1CC(=O)Nc1ccc(C(F)(F)F)cc1Cl [Example 278, 3-Acetamido-N-(2-(4-(4-(2-((2-chloro-4-(trifluoromethyl)phenyl)amino)-2-oxoethyl)-2-(3,6-dihydro-2H-pyran-4-yl)-5-ethyl-7-oxo-4,7-dihydro-[1,2,4]triazolo[1,5-a]pyrimidin-6-yl)piperazin-1-yl)-2-oxoethyl)benzamide] | < 0.1 | < 0.1 |
| CCc1c(N2CCN(C(=O)CNC(=O)c3cn(C)[nH]c3=O)CC2)c(=O)n2nc(C3=CCOCC3)nc2n1CC(=O)Nc1ccc(C(F)(F)F)cc1Cl [Example 283, N-(2-(4-(4-(2-((2-Chloro-4-(trifluoromethyl)phenyl)amino)-2-oxoethyl)-2-(3,6-dihydro-2H-pyran-4-yl)-5-ethyl-7-oxo-4,7-dihydro-[1,2,4]triazolo[1,5-a]pyrimidin-6-yl)piperazin-1-yl)-2-oxoethyl)-1-methyl-3-oxo-2,3-dihydro-1H-pyrazole-4-carboxamide] | 0.1 to 1 | < 0.1 |
| CCc1c(N2CCN(C(=O)CNC(=O)c3cc(F)cc(NC)c3)CC2)c(=O)n2nc(C3=CCOCC3)nc2n1CC(=O)Nc1ccc(C(F)(F)F)cc1Cl [Example 284, N-(2-(4-(4-(2-((2-Chloro-4-(trifluoromethyl)phenyl)amino)-2-oxoethyl)-2-(3,6-dihydro-2H-pyran-4-yl)-5-ethyl-7-oxo-4,7-dihydro-[1,2,4]triazolo[1,5-a]pyrimidin-6-yl)piperazin-1-yl)-2-oxoethyl)-3-fluoro-5-(methylamino)benzamide] | < 0.1 | < 0.1 |
| CCc1c(N2CCN(C(=O)CNC(=O)c3ccc(F)c(NC)c3)CC2)c(=O)n2nc(C3=CCOCC3)nc2n1CC(=O)Nc1ccc(C(F)(F)F)cc1Cl [Example 285, N-(2-(4-(4-(2-((2-Chloro-4-(trifluoromethyl)phenyl)amino)-2-oxoethyl)-2-(3,6-dihydro-2H-pyran-4-yl)-5-ethyl-7-oxo-4,7-dihydro-[1,2,4]triazolo[1,5-a]pyrimidin-6-yl)piperazin-1-yl)-2-oxoethyl)-4-fluoro-3-(methylamino)benzamide] | < 0.1 | < 0.1 |
| CCc1c(N2CCN(C(=O)CNC(=O)c3ccc(F)c(N(C)C)c3)CC2)c(=O)n2nc(C3=CCOCC3)nc2n1CC(=O)Nc1ccc(C(F)(F)F)cc1Cl [Example 286, N-(2-(4-(4-(2-((2-Chloro-4-(trifluoromethyl)phenyl)amino)-2-oxoethyl)-2-(3,6-dihydro-2H-pyran-4-yl)-5-ethyl-7-oxo-4,7-dihydro-[1,2,4]triazolo[1,5-a]pyrimidin-6-yl)piperazin-1-yl)-2-oxoethyl)-3-(dimethylamino)-4-fluorobenzamide] | < 0.1 | < 0.1 |
| CCc1c(N2CCN(C(=O)CNC(=O)c3cccc(NC)c3F)CC2)c(=O)n2nc(C3=CCOCC3)nc2n1CC(=O)Nc1ccc(C(F)(F)F)cc1Cl [Example 287, N-(2-(4-(4-(2-((2-Chloro-4-(trifluoromethyl)phenyl)amino)-2-oxoethyl)-2-(3,6-dihydro-2H-pyran-4-yl)-5-ethyl-7-oxo-4,7-dihydro-[1,2,4]triazolo[1,5-a]pyrimidin-6-yl)piperazin-1-yl)-2-oxoethyl)-2-fluoro-3-(methylamino)benzamide] | < 0.1 | < 0.1 |
| CCc1c(N2CCN(C(=O)CNC(=O)c3cccc(N)c3)CC2)c(=O)n2nc(C3=CCOCC3)nc2n1CC(=O)Nc1ccc(C(F)(F)F)cc1Cl [Example 288, 3-Amino-N-(2-(4-(4-(2-((2-chloro-4-(trifluoromethyl)phenyl)amino)-2-oxoethyl)-2-(3,6-dihydro-2H-pyran-4-yl)-5-ethyl-7-oxo-4,7-dihydro-[1,2,4]triazolo[1,5-a]pyrimidin-6-yl)piperazin-1-yl)-2-oxoethyl)benzamide] | < 0.1 | < 0.1 |
| CCc1c(N2CCN(C(=O)CNC(=O)c3cc(NC)ccc3F)CC2)c(=O)n2nc(C3=CCOCC3)nc2n1CC(=O)Nc1ccc(C(F)(F)F)cc1Cl [Example 289, N-(2-(4-(4-(2-((2-Chloro-4-(trifluoromethyl)phenyl)amino)-2-oxoethyl)-2-(3,6-dihydro-2H-pyran-4-yl)-5-ethyl-7-oxo-4,7-dihydro-[1,2,4]triazolo[1,5-a]pyrimidin-6-yl)piperazin-1-yl)-2-oxoethyl)-2-fluoro-5-(methylamino)benzamide] | < 0.1 | < 0.1 |

More lines, now with the values ahead:

| IC50 [1] [µM] | IC50 [2] [µM] | Structure (SMILES) |
| --- | --- | --- |
| 0.1 to 1 | < 0.1 | CCc1c(N2CCN(C(=O)CNC(=O)CC3COC3)CC2)c(=O)n2nc(C3=CCOCC3)nc2n1CC(=O)Nc1ccc(C(F)(F)F)cc1Cl [Example 273, N-(2-Chloro-4-(trifluoromethyl)phenyl)-2-(2-(3,6-dihydro-2H-pyran-4-yl)-5-ethyl-6-(4-((2-(oxetan-3-yl)acetyl)glycyl)piperazin-1-yl)-7-oxo-[1,2,4]triazolo[1,5-a]pyrimidin-4(7H)-yl)acetamide] |
| < 0.1 | < 0.1 | CCc1c(N2CCN(C(=O)CNC(=O)Cc3ccccc3F)CC2)c(=O)n2nc(C3=CCOCC3)nc2n1CC(=O)Nc1ccc(C(F)(F)F)cc1Cl [Example 274, N-(2-Chloro-4-(trifluoromethyl)phenyl)-2-(2-(3,6-dihydro-2H-pyran-4-yl)-5-ethyl-6-(4-((2-(2-fluorophenyl)acetyl)glycyl)piperazin-1-yl)-7-oxo-[1,2,4]triazolo[1,5-a]pyrimidin-4(7H)-yl)acetamide] |
| < 0.1 | < 0.1 | CCc1c(N2CCN(C(=O)CNC(=O)CC3CC3)CC2)c(=O)n2nc(C3=CCOCC3)nc2n1CC(=O)Nc1ccc(C(F)(F)F)cc1Cl [Example 275, N-(2-Chloro-4-(trifluoromethyl)phenyl)-2-(6-(4-((2-cyclopropylacetyl)glycyl)piperazin-1-yl)-2-(3,6-dihydro-2H-pyran-4-yl)-5-ethyl-7-oxo-[1,2,4]triazolo[1,5-a]pyrimidin-4(7H)-yl)acetamide] |
| < 0.1 | < 0.1 | CCc1c(N2CCN(C(=O)CNC(=O)Cc3cscn3)CC2)c(=O)n2nc(C3=CCOCC3)nc2n1CC(=O)Nc1ccc(C(F)(F)F)cc1Cl [Example 276, N-(2-Chloro-4-(trifluoromethyl)phenyl)-2-(2-(3,6-dihydro-2H-pyran-4-yl)-5-ethyl-7-oxo-6-(4-((2-(thiazol-4-yl)acetyl)glycyl)piperazin-1-yl)-[1,2,4]triazolo[1,5-a]pyrimidin-4(7H)-yl)acetamide] |
| < 0.1 | < 0.1 | CCc1c(N2CCN(C(=O)CNC(=O)c3ccnc(O)c3)CC2)c(=O)n2nc(C3=CCOCC3)nc2n1CC(=O)Nc1ccc(C(F)(F)F)cc1Cl [Example 279, N-(2-(4-(4-(2-((2-Chloro-4-(trifluoromethyl)phenyl)amino)-2-oxoethyl)-2-(3,6-dihydro-2H-pyran-4-yl)-5-ethyl-7-oxo-4,7-dihydro-[1,2,4]triazolo[1,5-a]pyrimidin-6-yl)piperazin-1-yl)-2-oxoethyl)-2-hydroxyisonicotinamide] |
| < 0.1 | < 0.1 | CCc1c(N2CCN(C(=O)CNC(=O)c3cnccc3O)CC2)c(=O)n2nc(C3=CCOCC3)nc2n1CC(=O)Nc1ccc(C(F)(F)F)cc1Cl [Example 280, N-(2-(4-(4-(2-((2-Chloro-4-(trifluoromethyl)phenyl)amino)-2-oxoethyl)-2-(3,6-dihydro-2H-pyran-4-yl)-5-ethyl-7-oxo-4,7-dihydro-[1,2,4]triazolo[1,5-a]pyrimidin-6-yl)piperazin-1-yl)-2-oxoethyl)-4-hydroxynicotinamide] |
| < 0.1 | < 0.1 | CCc1c(N2CCN(C(=O)CNC(=O)c3cncc(O)c3)CC2)c(=O)n2nc(C3=CCOCC3)nc2n1CC(=O)Nc1ccc(C(F)(F)F)cc1Cl [Example 281, N-(2-(4-(4-(2-((2-Chloro-4-(trifluoromethyl)phenyl)amino)-2-oxoethyl)-2-(3,6-dihydro-2H-pyran-4-yl)-5-ethyl-7-oxo-4,7-dihydro-[1,2,4]triazolo[1,5-a]pyrimidin-6-yl)piperazin-1-yl)-2-oxoethyl)-5-hydroxynicotinamide] |
| < 0.1 | < 0.1 | CCc1c(N2CCN(C(=O)CNC(=O)c3cccnc3O)CC2)c(=O)n2nc(C3=CCOCC3)nc2n1CC(=O)Nc1ccc(C(F)(F)F)cc1Cl [Example 282, N-(2-(4-(4-(2-((2-Chloro-4-(trifluoromethyl)phenyl)amino)-2-oxoethyl)-2-(3,6-dihydro-2H-pyran-4-yl)-5-ethyl-7-oxo-4,7-dihydro-[1,2,4]triazolo[1,5-a]pyrimidin-6-yl)piperazin-1-yl)-2-oxoethyl)-2-hydroxynicotinamide] |
| < 0.1 | < 0.1 | CCc1c(N2CCN(C(=O)CNC(=O)c3cc(O)ccc3F)CC2)c(=O)n2nc(C3=CCOCC3)nc2n1CC(=O)Nc1ccc(C(F)(F)F)cc1Cl [Example 290, N-(2-(4-(4-(2-((2-Chloro-4-(trifluoromethyl)phenyl)amino)-2-oxoethyl)-2-(3,6-dihydro-2H-pyran-4-yl)-5-ethyl-7-oxo-4,7-dihydro-[1,2,4]triazolo[1,5-a]pyrimidin-6-yl)piperazin-1-yl)-2-oxoethyl)-2-fluoro-5-hydroxybenzamide] |
